Reference: article PMC11508334, “In Vitro Evaluation of New 5-Nitroindazolin-3-one Derivatives as Promising Agents against Trypanosoma cruzi” (International Journal of Molecular Sciences, 2024)

Legend:
[1] = Cyclic voltammetry, reduction of nitro group; type: physicochemical
Protocol: Cyclic Voltammetry (CV) was carried out using a Metrohm Autolab instrument model PGSTAT204, using dimethyl sulfoxide (DMSO) as the solvent (1 mM solutions), tetrabutylammonium perchlorate (0.1 M TBAP) as the supporting electrolyte, a hanging drop mercury electrode (HDME) as the working electrode, Ag/AgCl (3M KCl) as the reference electrode, and a graphite rod as the counter electrode. All measurements were performed after bubbling with nitrogen (N2) for 10 min.
Using Nicholson’s procedure, the Ipa/Ipc values (RNO2/RNO2^•−) were measured from each cyclic voltammogram with a scan rate between 0.1 and 2.5 V/s.

[2] = tested on: RAW 264.7 cells; assay: Cytotoxicity MTT assay on RAW 264.7 cells; type: cell-based; settings: in vitro cytotoxicity, murine RAW 264.7 macrophages
Protocol: The compounds under study, dissolved in dimethylsulfoxide (DMSO), were added to the culture media at 10–200 μM. RAW 264.7 cells were cultured in 96-well plates (5 × 10^4 cells per well), and 100 μL of 0.5 mg/mL MTT was added to each well. The DMSO final concentration was less than 0.1% v/v. After incubation for 4 h at 37 °C, the generated water-insoluble formazan dye was dissolved by adding 100 μL of 10% w/v sodium dodecyl sulfate (SDS) in 0.01 M HCl. The plates were further incubated overnight at 37 °C; […] 0.5% of Triton X-100 was added as a positive control. The plates were further incubated overnight at 37 °C, and the optical density of the wells was determined using a microplate reader (Asys Expert Plus©, Asys Hitachi, Vienna, Austria) at 570 nm. Under these conditions, the optical density is directly proportional to the viable cell number in each well. All experiments were performed at least thrice and data were reported as means and their standard deviations from triplicate cultures. Results are reported as IC50 regarding the control (uninfected cells in culture medium)

[3] = tested on: T. cruzi epimastigote stage (Dm28c strain); assay: Epimastigotes viability study (MTT); type: cell-based, Trypanosoma cruzi
Protocol: The trypanocidal activity was evaluated against the T. cruzi epimastigote stage (Dm28c strain). It was measured through the MTT assay using 0.22 mg/mL phenazine methosulfate (as an electron carrier). T. cruzi epimastigote from the author's collection (Programa de Farmacología Molecular y Clínica, Facultad de Medicina, Universidad de Chile, Santiago, Chile) were grown at 28 °C in liver infusion tryptase (LIT) medium, as reported earlier, but replacing blood with 4 μM hemin. […] fetal bovine serum (FBS) was added to a final concentration of 10% v/v. In this colorimetric assay for testing the trypanocidal activity, the compounds were dissolved in DMSO. They were added to 3 × 10^6 parasites/mL at 100 μM final concentrations in RPMI 1640 culture medium without phenol red for 24 h at 28 °C. The final concentration of DMSO was less than 0.1% v/v. […] The MTT assay, which was described previously, determined the viability of the epimastigotes.

[4] = tested on: Dm28c trypomastigotes; assay: Trypomastigote viability study (MTT); type: cell-based, Trypanosoma cruzi
Protocol: Vero cells (ATCC CCL-81) were infected with Dm28c trypomastigotes at a 1:3 (cell: parasite) ratio. T. cruzi trypomastigotes were initially obtained from primary cultures of peritoneal macrophage from chagasic mice. […] Vero cell cultures were then infected with trypomastigotes and incubated at 37 °C in humidified air and 5% CO2 for 5–7 days. After that time, the culture medium was collected and centrifuged at 500× g for 5 min. The trypomastigote-containing pellet was re-suspended in RPMI 1640 supplemented with inactivated FBS and penicillin–streptomycin at a final 1 × 10^7 parasites/mL density. Trypomastigote viability assays were performed using the MTT reduction method as described previously. Then, 1 × 10^7 parasites/mL was incubated in RPMI 1640 with inactivated FBS at 37 °C for 24 h with or without the studied compounds.

[5] = tested on: trypomastigotes of T. cruzi; assay: Plasmatic membrane permeability assay (SYTOX Green) on trypomastigotes; type: cell-based, Trypanosoma cruzi; settings: compound at IC50, 1 h
Protocol: Late growth-phase trypomastigotes of T. cruzi (3 × 10^6/well) were washed and incubated in the dark with 1 μM SYTOX Green probe (Molecular Probes) in HANKS′ balanced salts solution (HBSS; Sigma-Aldrich) supplemented with 10 mM D-glucose (HBSS + Glu). The test compound was added at IC50, and fluorescence was measured after 1 h of treatment. The maximum permeabilization was obtained with 0.5% Triton X-100. Fluorescence intensity was determined using Varioskan™ LUX multimode microplate reader (ThermoFisher Scientific, Waltham, MA, USA), with excitation and emission wavelengths of 485 and 520 nm, respectively. The following internal controls were used in the evaluation: (i) the background fluorescence of the compound at the respective wavelengths and (ii) the possible interference of DMSO. Samples were tested in triplicate.

[6] = tested on: Dm28c trypomastigote of T. cruzi; assay: Mitochondrial membrane potential (TMRM incorporation); type: cell-based, Trypanosoma cruzi; settings: trypomastigotes, compound at IC50, 3 h; compared to negative control
Protocol: Mitochondrial membrane potential (ψm) was determined by the incorporation of the fluorescent probe tetramethylrhodamine methyl ester (TMRM). […] Then, carbonylcyanide-m-chlorophenylhydrazone (CCCP, 10 µM) was added as a control and incubated at 37 °C in humidified air and 5% CO2 for 3 h. Parasites were washed with phosphate-buffered saline (pH 7.4), and suspensions were incubated with TMRM (50 nM) for 15 min. Fluorescence measurements determined the incorporation of the probe at an excitation wavelength of 550 nm and an emission of 590 nm. All the assays were performed in darkness.

[7] = tested on: trypomastigote form of T. cruzi; assay: Analysis of ATP levels (CellTiter-Glo); type: cell-based, Trypanosoma cruzi; settings: trypomastigotes; relative to negative control
Protocol: The CellTiter-Glo® Luminescent Cell Viability Assay (Promega, Fitchburg, WI, USA) was used to detect variations in ATP levels. After incubation, treated parasites were centrifuged (6000 rpm, 10 min, 4 °C) and treated according to the manufacturer’s instructions. Luminescence was determined using the Varioskan™ LUX multi-mode microplate reader (ThermoFisher Scientific). Results were expressed as a percentage relative to the negative control without treatment. Sodium azide (20 mM NaN3 for 3 h) was added as a positive control and benznidazole as a reference treatment. (1) %relative control=luminescence sample/luminescence control∗100

[8] = tested on: Dm28c trypomastigotes; assay: Intracellular ROS generation (DCFH2-DA); type: cell-based, Trypanosoma cruzi; settings: compound at IC50, 40 min
Protocol: ROS detection was performed using the 2′, 7′-dichlorodihydrofluorescein diacetate (DCFH2-DA) method. For Dm28c trypomastigotes, 96-well plates were seeded with 10 × 10^6 trypomastigotes/mL in RPMI medium without phenol red and supplemented with 5% SFBi. Cultures were incubated with a 20 μM DCFH2-DA solution for 15 min at 37 °C. Then, they were centrifuged at 6000 rpm and washed 2 times with phosphate-buffered saline at pH 7.4. The DCFH2-DA-loaded trypomastigotes were then transferred to a Nunc® fluorescence 96-well plate. […] The area under fluorescence increase over time curves were determined using Origin 8 software 9.2, with areas normalized to control. Results are the means ± SD of three independent experiments.

[9] = tested on: trypomastigote form of T. cruzi (Dm28c strain); assay: ESR spin trapping with DMPO in parasite media; type: cell-based, Trypanosoma cruzi; settings: trypomastigotes, NADPH, aerobic conditions
Protocol: The free radical production capacity of the new complexes was assessed in the parasite by ESR using 5,5- dimethyl-1-pirroline-N-oxide (DMPO) for spin trapping. Each tested compound was dissolved in DMSO (spectroscopy grade) (ca. 1 mM) and the solution was added to a mixture containing the trypomastigote form of T. cruzi (Dm28c strain, final protein concentration 4–8 mg/mL) and DMPO (final concentration 250 mM). The mixture was transferred to a 50 μL capillary. ESR spectra were recorded in the X band (9.85 GHz) using a Bruker ECS 106 spectrometer with a rectangular cavity and 50 KHz field modulation. All the spectra were registered in the same scale after 15 scans.

SMILES: O=c1c2cc([N+](=O)[O-])ccc2[nH]n1Cc1ccccn1 [Compound 5a, 5-nitro-2-picolyl-indazolin-3-one]
- −EpaIII ([1]; anodic peak potential of couple IIIc/IIIa, given with inverted sign, vs. Ag/AgCl electrode in DMSO): 1.32 V
- −EpcIII ([1]; cathodic peak potential of couple IIIc/IIIa, given with inverted sign, vs. Ag/AgCl electrode in DMSO): 1.36 V
- Ipa/Ipc ([1]; current ratio RNO2/RNO2•−, couple IIIc/IIIa, DMSO): 0.62
- −E1/2 ([1]; half-wave potential of couple IIIc/IIIa, given with inverted sign, vs. Ag/AgCl electrode in DMSO): 1.34 V
- IC50 [2]: 68.9 ± 0.7 µM
- SI Epimastigote ([3]; Selectivity Index IC50 macrophages RAW 264.7/IC50 epimastigotes Dm28c): 62.6
- IC50 ([3]; T. cruzi Dm28c epimastigotes, 24 h, MTT): 1.1 ± 0.3 µM
- SI Trypomastigote ([4]; Selectivity Index IC50 macrophages RAW 264.7/IC50 trypomastigotes Dm28c): 12.8
- IC50 ([4]; T. cruzi Dm28c trypomastigotes, 24 h, MTT): 5.4 ± 0.7 µM
- alteration of plasma membrane permeability (SYTOX Green incorporation) [5]: alter plasma membrane permeability
- effect on mitochondrial membrane potential (ψm) [6]: statistically significant impact
- ATP levels [7]: significantly reduced ATP levels
- intracellular ROS (DCF fluorescence intensity) [8]: most significant increase in fluorescence intensity
- radical species detected by DMPO spin trapping [9]: generation of the hydroxyl radical
